Results from patent US11814652B2, “Pluripotent stem cell differentiation-promoting agent” (Oriental Yeast Co., Ltd., priority 2018, dated 2023).

What was measured:
iPS cells 201B7 strain = test: Cell number during mesodermal differentiation-induction in medium with β-NMN (Example 3); format: cell-based, human; conditions: mesodermal differentiation-inducing medium containing β-NMN 0.1, 0.25 or 1 mM; 7th day after seeding; versus medium not containing β-NMN
Protocol: The effects of β-NMN on the mesodermal differentiation-induction of iPS cells were examined. The 201B7 strain was used as the iPS cells. The iPS cells were seeded in a 24-well plate coated with Matrigel (manufactured by Corning Incorporated) according to the manufacturer's protocol at 1×10^5 cells/well. The cells in the 24-well plate were cultured in a culture medium for iPS cells adjusted to have a final concentration of Rock inhibitor of 10 μM for 1 day. From the 1st day after seeding, the culture medium was replaced with a culture medium prepared by adjusting a mesoderm differentiation-inducing culture medium of “STEMdiff Trilineage Differentiation kit” (manufactured by STEMCELL Technologies) to have a final concentration of β-NMN of 0, 0.1, 0.25, or 1 mM for 1 day. The culture medium was replaced with a culture medium prepared by adjusting a mesodermal differentiation-inducing culture medium to have final concentrations of both β-NMN and Rock inhibitor of 10 μM only on the 1st day after seeding. Cells of the 7th day after seeding were sampled and the cell numbers were counted. As a result, the number of the cells cultured in the mesodermal differentiation-inducing culture medium containing β-NMN was larger than the number of the cells cultured in the medium not containing β-NMN.

iPS cells 253G1 strain = test: Flow cytometry of Sox17/CXCR4 endodermal markers, differentiation-induction in medium with β-NMN (Example 4); format: cell-based; conditions: endodermal differentiation-inducing medium with β-NMN 0.1, 0.25 or 1 mM; 5th or 7th day; versus absence of β-NMN
Protocol: The effects of β-NMN on the induction of endodermal differentiation of iPS cells were examined. As the iPS cells, the 253G1 strain was used. The iPS cells were seeded in a 24-well plate coated with Matrigel (manufactured by Corning Incorporated) according to the manufacturer's protocol at 3×10^5 cells/well. The cells in the 24-well plate were cultured in a culture medium for iPS cells adjusted to have a final concentration of Rock inhibitor of 10 μM for 1 day. From the 1st day after seeding, the culture medium was replaced with a culture medium prepared by adjusting an endoderm differentiation-inducing culture medium of “STEMdiff Trilineage Differentiation kit” (manufactured by STEMCELL Technologies) to have a final concentration of β-NMN of 0, 0.1, 0.25, or 1 mM for 1 day. […] Then, the cells were stained with a fluorescence-labeled anti-Sox17 antibody (manufactured by Becton, Dickinson and Company, clone P7-969) and a fluorescence-labeled anti-CXCR4 antibody (manufactured by Biolegend, clone 12G5). After washing the stained cells, a flow cytometer “FACS caliber” (manufactured by Becton, Dickinson and Company) was used to analyze the fluorescence intensity of the anti-Sox17 antibody and the fluorescence intensity of the anti-CXCR4 antibody in each sample. […]

[1] = system: Human adipose tissue-derived mesenchymal stem cells; test: qPCR of PPARγ and adiponectin genes after adipocyte differentiation-induction of mesenchymal stem cells grown with β-NMN (Example 9); format: cell-based; conditions: GAPDH internal standard, 0.1 mM or 0.25 mM of β-NMN, 0 mM defined as 1, 14th day of adipocyte differentiation-induction
Text: The effects of culturing in the presence of β-NMN before adipocyte differentiation-induction of mesenchymal stern cells were examined. In the same manner as in Example 8, Human adipose tissue-derived mesenchymal stem cells (manufactured by Lonza, Cat #PT5006) were used as the mesenchymal stem cells. As a growth culture medium, a culture medium prepared by appropriately adding β-MNM to “MSCGM Bullet Kit” (manufactured by Lonza, Cat #PT3001) was used as in Example 8. As an adipocyte differentiation-inducing culture medium, a culture medium prepared by adjusting a DMEM-High Glucose medium to have a final concentration of fetal bovine serum of 10% by volume, a final concentration of IBMX of 0.5 mM, a final concentration of dexamethasone of 1 μM, a final concentration of indomethacin of 200 μM, and a final concentration of penicillin-streptomycin of 0.1% was used. The culture of the mesenchymal stem cells before differentiation-induction was performed in the same manner as in Example 8. The differentiation induction was performed in the same manner as in Example 8 except that the adipocyte differentiation-inducing culture medium was used instead of the bone differentiation-inducing culture medium. […] The relative expression level of each gene was determined from the results of qPCR of cells that were induced to differentiate into adipocytes. […]

## NC(=O)c1ccc[n+]([C@@H]2O[C@H](COP(=O)([O-])O)[C@@H](O)[C@H]2O)c1 [β-NMN, β-nicotinamide mononucleotide]
iPS cells 201B7 strain
  number of the cells: larger
iPS cells 253G1 strain
  ratio of Sox17-positive CXCR4-positive cells: no clear difference
[1]
  relative expression level of the PPARγ gene: increase
  relative expression level of the adiponectin gene: increase
